In US6110962A, “11-aryl-benzo[B]naphtho[2,3-D]furans and 11-aryl-benzo[B]naphtho[2,3-D]thiophenes useful in the treatment of insulin resistance and hyperglycemia” (American Home Products Corporation, priority 1999, dated 2000):
Counter-ions that a name gives are not always drawn. Like-named read-outs stand apart in the source and are kept apart here.

How the values were obtained:
[1] = tested on: rat hepatic microsomal PTPases; conditions: PTPase activity, compound at 50 μM
diabetic (ob/ob) mice = test: Blood glucose lowering activity in diabetic (ob/ob) mice; format: in vivo, mouse; conditions: ob/ob mice; for change in vivo at 25 mg/kg / change in vivo at 100 mg/kg: Mus musculus, po
Method: The blood glucose lowering activity of representative compounds of this invention were determined in an in vivo standard procedure using diabetic (ob/ob) mice. The procedures used and results obtained are briefly described below. The non-insulin dependent diabetic (NIDDM) syndrome can be typically characterizes by obesity, hyperglycemia, abnormal insulin secretion, hyperinsulinemia and insulin resistance. […] In each test procedure, mice [Male or female ob/ob (C57 B1/6J) and their lean litermates (ob+ or +/+, Jackson Laboratories) ages 2 to 5 months (10 to 65 g)] of a similar age were randomized according to body weight into 4 groups of 10 mice. The mice were housed 5 per cage and are maintained on normal rodent chow with water ad libitum. Mice received test compound daily by gavage (suspended in 0.5 ml of 0.5% methyl cellulose); dissolved in the drinking water; or admixed in the diet. […] The dose is calculated based on the fed weekly body weight and is expressed as active moiety. […] Control mice received vehicle only. On the morning of Day 4, 7 or 14 two drops of blood (approximetly 50 ul) were collected into sodium fluoride containing tubes either from the tail vein or after decapitation. For those studies in which the compound was administered daily by gavage the blood samples were collected two hours after compound administration. The plasma was isolated by centrifugation and the concentration of glucose is measured enzymatically on an Abbott V. P. Analyzer. […] Analysis of variance followed by Dunett's Comparison Test (one-tailed) are used to estimate the significant difference between the plasma glucose values from the control group and the individual compound treated groups (CMS SAS Release 5.18).

Human recombinant PTP1B = target: T1, Human recombinant PTP1B (Homo sapiens, UniProt P18031); format: biochemical; conditions: read-out: IC50
T1 construct: made in house
T1 sequence (P18031 1-435): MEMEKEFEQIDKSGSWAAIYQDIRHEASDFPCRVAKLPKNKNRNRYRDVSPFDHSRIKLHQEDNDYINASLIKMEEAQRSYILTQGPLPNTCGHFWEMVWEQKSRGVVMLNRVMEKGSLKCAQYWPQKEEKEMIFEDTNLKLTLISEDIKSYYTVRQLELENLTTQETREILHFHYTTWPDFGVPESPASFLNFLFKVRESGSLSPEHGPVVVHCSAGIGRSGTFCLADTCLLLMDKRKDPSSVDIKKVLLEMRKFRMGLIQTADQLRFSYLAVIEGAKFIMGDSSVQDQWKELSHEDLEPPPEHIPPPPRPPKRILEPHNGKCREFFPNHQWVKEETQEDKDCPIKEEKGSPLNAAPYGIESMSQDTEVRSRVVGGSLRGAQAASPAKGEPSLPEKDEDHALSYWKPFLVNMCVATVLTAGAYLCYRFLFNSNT

[2] = 96 h, dose 25 mg/Kg, plasma glucose Day 4, 7 or 14, read-out: % Change Glucose from Vehicle
[3] = dose 25 mg/Kg, read-out: % Change Insulin from Vehicle
[4] = 96 h, dose 100 mg/Kg, plasma glucose Day 4, 7 or 14, read-out: % Change Glucose from Vehicle
[5] = dose 100 mg/Kg, read-out: % Change Insulin from Vehicle

| % Change from Control [1] [%] | IC50 (Human recombinant PTP1B) [nM] | % Change from Control ([1]; sodium salt, 50 µM) [%] | Structure (SMILES) | change in vivo at 25 mg/kg (diabetic (ob/ob) mice; [2]) [%] | change in vivo at 25 mg/kg (diabetic (ob/ob) mice; [3]) [%] | change in vivo at 100 mg/kg (diabetic (ob/ob) mice; [4]) [%] | change in vivo at 100 mg/kg (diabetic (ob/ob) mice; [5]) [%] | % Change Glucose from Vehicle (diabetic (ob/ob) mice; dose 100 mg/Kg, plasma glucose Day 4, 7 or 14, 100 mg/kg) [%] | % Change Glucose from Vehicle (diabetic (ob/ob) mice; dose 25 mg/Kg, plasma glucose Day 4, 7 or 14, sodium salt, 25 mg/kg) [%] | % Change Insulin from Vehicle (diabetic (ob/ob) mice; dose 25 mg/Kg, sodium salt) [%] |
| --- | --- | --- | --- | --- | --- | --- | --- | --- | --- | --- |
| -59.75 | 209 | – | C[C@@H](Oc1c(Br)cc(-c2c3ccccc3c(I)c3sc4ccccc4c23)cc1Br)C(=O)O [Example 135, (R)-2-[2,6-Dibromo-4-(6-iodo-benzo[b]naphtho[2,3-d]thiophen-11-yl]-phenoxy]-propionic acid] | -15.8 | -57.4 | – | – | – | – | – |
| -59.03 | 46 | – | C[C@@H](Oc1c(Br)cc(-c2c3ccccc3c(Sc3ccccc3)c3sc4ccccc4c23)cc1Br)C(=O)O [Example 129, (R)-2-[2,6-Dibromo-4-(6-phenylsulfanyl-benzo[b]naphthor[2,3-d]thiophen-11-yl)-phenoxy]-propionic acid] | -14.9 | -54.6 | – | – | – | – | – |
| -101.01 | 45 | – | O=C(O)[C@@H](CCc1ccccc1)Oc1c(Br)cc(-c2c3ccccc3c(Br)c3sc4ccccc4c23)cc1Br [Example 113] | -0.5 | -55.8 | – | – | – | – | – |
| -37.08 | 64 | – | O=C(O)[C@@H](Cc1ccccc1)Oc1c(Br)cc(-c2c3ccccc3c(Cl)c3sc4ccccc4c23)cc1Br [Example 127, (R)-2-{2,6-Dibromo-4-(6-chloro-benzo[b]naphtho[2,3-d]thiophen-11-yl)-phenoxy}-3-phenyl-propionic acid] | -18.8 | -76.5 | – | – | – | – | – |
| -70.95 | 76 | – | Brc1cc(-c2c3ccccc3c(Br)c3sc4ccccc4c23)cc(Br)c1O[C@H](Cc1ccccc1)c1nnn[nH]1 [Example 172, (R)-5-{1-[2,6-Dibromo-4-(6-bromo-benzo[b]naphtho[2,3-d]thiophen-11-yl)-phenoxy]-2-phenyl-ethyl}-1 H-tetrazole] | – | – | 5.62 | -52 | – | – | – |
| -82.58 | 386 | – | O=C(O)COc1c(Br)cc(-c2c3ccccc3c(Br)c3sc4ccccc4c23)cc1Br [Example 79, [2,6-Dibromo-4-(6-bromo-benzo[b]naphtho[2,3-d]thiophen-11-yl)-phenoxy]-acetic acid] | – | – | -22.6 | – | -22.60 | – | – |
| – | 71 | -66.67 | O=C(O)[C@@H](Cc1ccccc1)Oc1c(Br)cc(-c2c3ccccc3c(Br)c3sc4ccccc4c23)cc1Br [Example 109, (R)-2-[2,6-Dibromo-4-(6-bromo-benzo[b]naphtho[2,3-d]thiophen-11-yl)-phenoxy]-3-phenyl-propionic acid, sodium salt] | – | – | – | – | – | -26.31 | -71.64 |
| -64.89 | 61 | – | CC(C)c1cc(-c2c3ccccc3c(Br)c3sc4ccccc4c23)cc(C(C)C)c1O[C@H](Cc1ccccc1)C(=O)O [Example 139, (2R)-2-[4-(6-Bromo-benzo[b]naphtho[2,3-d]thiophen-11-yl)-2,6-diisopropyl-phenoxy)-3-phenyl-propionic acid] | -18.5 | -22 | – | – | – | – | – |
| -86.47 | 402 | – | O=C(O)[C@@H](Cc1ccccc1)Oc1c(F)ccc(-c2c3ccccc3c(Br)c3sc4ccccc4c23)c1F [Example 203, (R)-2-[]3-(6-Bromo-benzo[b]naphtho[2,3-d]thiophen11-yl)-2.6-difluoro-phenoxyl-3-phenyl-propionic acid] | – | – | -16.1 | -91 | – | – | – |
| -78.77 | 298 | – | COc1c2ccccc2c(-c2cc(Br)c(O[C@H](Cc3ccccc3)C(=O)O)c(Br)c2)c2c1sc1ccccc12 [Example 126, (R)-2-[2,6-Dibromo-4-(6-methoxy-benzo[b]naphtho[2,3-d]thiophen-11-yl)-phenoxy]-3-phenyl-propionic acid] | -28.6 | -62.4 | – | – | – | – | – |
